What was measured:
Assay in all cases: Bliss excess, mean over the matrix (fraction); higher = more synergy
RT4 (Bladder Carcinoma) = tested on: RT4 (Bladder Carcinoma)
Procedure, shortened: (§1)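 Bliss excess equals the observed combination effect minus the expected value EA + EB − EA·EB, where EA and EB are the effects of each agent alone. Combination Emax is the second-highest inhibition within the matrix. Inhibition was scaled from CellTiter-Glo 2.0 luminescence, with 0 set by vehicle wells and 1 by blank wells, after 72 hours of two-drug dosing of cells plated in 1536-well plates.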

[1] = tested on: HTC-C3 (Thyroid Gland Carcinoma)
Procedure, shortened: as §1

[2] = tested on: RMG-I (Ovarian Carcinoma)
Procedure, shortened: as §1

[3] = tested on: SK-MM-2 (Plasma Cell Myeloma)
Procedure, shortened: as §1

CHL-1 (Melanoma) = tested on: CHL-1 (Melanoma)
Procedure, shortened: as §1

[4] = tested on: OCI-AML5 (Acute Myeloid Leukemia)
Procedure, shortened: as §1

[5] = tested on: JHH-1 (Hepatocellular Carcinoma)
Procedure, shortened: as §1

[6] = tested on: SNU-175 (Colorectal Carcinoma)
Procedure, shortened: as §1

KYM-1 (Rhabdomyosarcoma) = tested on: KYM-1 (Rhabdomyosarcoma)
Procedure, shortened: as §1

[7] = tested on: AsPC-1 (Pancreatic Carcinoma)
Procedure, shortened: as §1

[8] = tested on: RPMI-8866 (Chronic Myelogenous Leukemia)
Procedure, shortened: as §1

[9] = tested on: RL95-2 (Endometrial Carcinoma)
Procedure, shortened: as §1

[10] = tested on: OVTOKO (Ovarian Carcinoma)
Procedure, shortened: as §1

[11] = tested on: HSC-3 (Oral Cavity Carcinoma)
Procedure, shortened: as §1

786-0 (Kidney Carcinoma) = tested on: 786-0 (Kidney Carcinoma)
Procedure, shortened: as §1

[12] = tested on: OV-90 (Ovarian Carcinoma)
Procedure, shortened: as §1

[13] = tested on: NCI-H1155 (Non-Small Cell Lung Carcinoma)
Procedure, shortened: as §1

[14] = tested on: PC-14 (Lung Adenocarcinoma)
Procedure, shortened: as §1

[15] = tested on: PANC-02-03 (Pancreatic Carcinoma)
Procedure, shortened: as §1

[16] = tested on: COLO-684 (Endometrial Carcinoma)
Procedure, shortened: as §1

SMILES | Bliss excess (RT4 (Bladder Carcinoma)) | Bliss excess [1] | Bliss excess [2] | Bliss excess [3] | Bliss excess (CHL-1 (Melanoma)) | Bliss excess [4] | Bliss excess [5] | Bliss excess [6] | Bliss excess (KYM-1 (Rhabdomyosarcoma)) | Bliss excess [7] | Bliss excess [8] | Bliss excess [9] | Bliss excess [10] | Bliss excess [11] | Bliss excess (786-0 (Kidney Carcinoma)) | Bliss excess [12] | Bliss excess [13] | Bliss excess [14] | Bliss excess [15] | Bliss excess [16]
CC(=O)c1c(C)c2cnc(Nc3ccc(N4CCNCC4)cn3)nc2n(C2CCCC2)c1=O [Palbociclib] + Cn1cnc2c(F)c(Nc3ccc(Br)cc3Cl)c(C(=O)NOCCO)cc21 [Selumetinib] (first compound max 10 µM, 7x7, partner max 10 µM) | 0.0209 | 0.0564 | -0.0165 | -0.021 | -0.0342 | 0.0868 | -0.0693 | 0.0599 | -0.0022 | -0.0664 | 0.0259 | -0.0144 | -0.0503 | -0.0418 | 0.0079 | 0.0151 | -0.0201 | 0.0408 | 0.0334 | -0.04
COc1cccc(OCCCN)c1-c1cc(Nc2cnc(C#N)cn2)n[nH]1 [Prexasertib] + C=CCn1c(=O)c2cnc(Nc3ccc(N4CCN(C)CC4)cc3)nc2n1-c1cccc(C(C)(C)O)n1 [AZD1775] (first compound max 1 µM, partner max 1 µM) | 0.128 | 0.145 | 0.0265 | 0.0085 | 0.0485 | 0.063 | 0.0105 | 0.0595 | 0.0713 | -0.0189 | 0.0591 | 0.108 | -0.0519 | 0.121 | 0.0707 | -0.0477 | 0.0998 | 0.0069 | 0.0504 | -0.0042
COc1cccc(OCCCN)c1-c1cc(Nc2cnc(C#N)cn2)n[nH]1 [Prexasertib] + CCc1c2c(nc3ccc(O)cc13)-c1cc3c(c(=O)n1C2)COC(=O)[C@]3(O)CC [SN-38] (first compound max 1 µM, 7x7, partner max 0.3 µM) | -0.0055 | 0.0844 | -0.102 | -0.0714 | 0.0254 | -0.0197 | -0.11 | -0.0298 | -0.0634 | -0.0333 | 0.0104 | 0.153 | -0.0192 | -0.0455 | -0.0368 | -0.0591 | -0.0161 | -0.0169 | 0.0098 | 0.0379
COc1cccc(OCCCN)c1-c1cc(Nc2cnc(C#N)cn2)n[nH]1 [Prexasertib] + CN(C)CCCOc1ccc(-c2ccc3ncc4c(c3c2)n(C2CCOCC2)c(=O)n4C)cn1 [AZD0156] (first compound max 1 µM, 7x7, partner max 1 µM) | 0.0482 | -0.029 | -0.04 | -0.0392 | 0.0059 | 0.0781 | 0.0785 | 0.0462 | 0.0147 | 0.0303 | -0.009 | -0.0364 | 0.0594 | -0.0322 | -0.0576 | -0.035 | -0.0753 | -0.0284 | -0.0009 | -0.0172
COc1cccc(OCCCN)c1-c1cc(Nc2cnc(C#N)cn2)n[nH]1 [Prexasertib] + C[C@@H]1COCCN1C2=NC(=NC(=C2)C3(CC3)[S@](=N)(=O)C)C4=C5C=CNC5=NC=C4 [AZD6738] (first compound max 1 µM, 7x7, partner max 10 µM) | 0.0645 | -0.0034 | 0.0108 | -0.0348 | 0.0139 | -0.0205 | 0.0009 | 0.0641 | -0.0107 | 0.0292 | 0.0633 | -0.0487 | 0.0006 | 0.0351 | -0.0219 | -0.0275 | -0.0438 | -0.047 | 0.0434 | -0.0733
COc1cccc(OCCCN)c1-c1cc(Nc2cnc(C#N)cn2)n[nH]1 [Prexasertib] + Cc1cc2ncnn2cc1Nc1ncc2c(n1)n(C1CCOCC1)c(=O)n2C [AZD7648] (first compound max 1 µM, 7x7, partner max 10 µM) | -0.0045 | -0.018 | -0.0235 | -0.0512 | -0.0122 | 0.0718 | 0.0093 | 0.0311 | -0.0078 | -0.0242 | 0.0455 | -0.0263 | -0.0079 | -0.0096 | -0.0276 | 0.0252 | 0.0039 | -0.037 | -0.0019 | -0.0547
COc1cccc(OCCCN)c1-c1cc(Nc2cnc(C#N)cn2)n[nH]1 [Prexasertib] + O=C(c1cc(Cc2n[nH]c(=O)c3ccccc23)ccc1F)N1CCN(C(=O)C2CC2)CC1 [Olaparib] (first compound max 1 µM, 7x7, partner max 10 µM) | 0.0044 | -0.0615 | -0.124 | -0.011 | -0.051 | -0.045 | -0.0416 | 0.0762 | -0.0609 | -0.0956 | 0.0028 | -0.0343 | -0.035 | -0.0093 | -0.0427 | -0.0191 | -0.0309 | -0.0478 | -0.0932 | -0.128
COc1cc2c(cc1OCCCCCOc1cc3c(cc1OC)C(=O)N1C=C(C)C[C@H]1C=N3)N=C[C@@H]1CC(C)=CN1C2=O [SG3199] + O=C(c1cc(Cc2n[nH]c(=O)c3ccccc23)ccc1F)N1CCN(C(=O)C2CC2)CC1 [Olaparib] (first compound max 0.001 µM, 7x7, partner max 10 µM) | -0.0164 | -0.013 | -0.0599 | -0.0179 | -0.0227 | 0.0232 | -0.0059 | -0.0317 | -0.0201 | -0.0535 | -0.0032 | -0.0383 | -0.0476 | -0.0067 | -0.0223 | -0.0422 | 0.0119 | -0.0274 | -0.0487 | -0.0286
CCc1c2c(nc3ccc(O)cc13)-c1cc3c(c(=O)n1C2)COC(=O)[C@]3(O)CC [SN-38] + CN(C)CCCOc1ccc(-c2ccc3ncc4c(c3c2)n(C2CCOCC2)c(=O)n4C)cn1 [AZD0156] (first compound max 0.3 µM, 7x7, partner max 1 µM) | -0.0184 | 0.105 | 0.018 | 0.0076 | 0.0336 | -0.0231 | -0.018 | 0.0229 | 0.0465 | -0.029 | 0.0969 | 0.0502 | -0.0523 | -0.0063 | 0.0032 | -0.012 | 0.0268 | 0.0407 | -0.007 | -0.0265
C[C@@H](c1ccc2nccn2c1)n1nnc2ncc(-c3cnn(C)c3)nc21 [Savolitinib] + CC1(C)CCC(CN2CCN(c3ccc(C(=O)NS(=O)(=O)c4ccc(NCC5CCOCC5)c([N+](=O)[O-])c4)c(Oc4cnc5[nH]ccc5c4)c3)CC2)=C(c2ccc(Cl)cc2)C1 [Venetoclax] (first compound max 1 µM, 7x7, partner max 1 µM) | -0.055 | -0.053 | -0.0756 | -0.019 | -0.0511 | -0.031 | -0.0529 | -0.0764 | -0.0133 | -0.0743 | -0.0452 | -0.0481 | -0.0675 | -0.0383 | -0.0848 | -0.063 | -0.0365 | -0.0276 | -0.0231 | -0.0458
C[C@@H](c1ccc2nccn2c1)n1nnc2ncc(-c3cnn(C)c3)nc21 [Savolitinib] + Cc1c2c(nn1C)CSCc1cc(n(C)n1)CSc1cc(c3ccccc3c1)OCCCc1c(C(=O)O)n(C)c3c-2c(Cl)ccc13 [AZD5991] (first compound max 1 µM, 7x7, partner max 1 µM) | 0.0148 | -0.0373 | -0.0327 | -0.0395 | -0.023 | -0.0178 | -0.0462 | -0.0713 | -0.0309 | -0.118 | -0.0285 | -0.0676 | -0.0743 | -0.018 | -0.0331 | -0.0519 | -0.0188 | -0.0134 | -0.0374 | -0.0158
Cn1cnc2c(F)c(Nc3ccc(Br)cc3Cl)c(C(=O)NOCCO)cc21 [Selumetinib] + C=CCn1c(=O)c2cnc(Nc3ccc(N4CCN(C)CC4)cc3)nc2n1-c1cccc(C(C)(C)O)n1 [AZD1775] (first compound max 10 µM, partner max 1 µM) | -0.0127 | 0.0338 | -0.0005 | -0.0198 | -0.0386 | 0.036 | 0.0171 | -0.0174 | -0.0696 | -0.046 | -0.0049 | 0.0148 | -0.114 | -0.0355 | -0.0543 | -0.0274 | -0.0474 | -0.0475 | -0.0033 | -0.0323
Cn1cnc2c(F)c(Nc3ccc(Br)cc3Cl)c(C(=O)NOCCO)cc21 [Selumetinib] + CC(C)n1c(=O)n(C)c2cnc3cc(F)c(-c4ccc(OCCCN5CCCCC5)nc4)cc3c21 [AZD1390] (first compound max 10 µM, 7x7, partner max 0.3 µM) | -0.0267 | -0.0092 | -0.0268 | -0.0084 | -0.0482 | -0.0198 | -0.0268 | 0.0063 | -0.0207 | -0.0093 | -0.0193 | -0.0663 | -0.0509 | -0.0424 | -0.0587 | 0.0131 | -0.0679 | -0.0015 | -0.0139 | -0.0257

Reference: the supplement of paper PMC11061612
